pEC50: −log10 of the molar value.
Biological target: T1, OR2AT4 (olfactory receptor 2AT4) (Homo sapiens, UniProt A6NND4)
T1 sequence (A6NND4 1-320): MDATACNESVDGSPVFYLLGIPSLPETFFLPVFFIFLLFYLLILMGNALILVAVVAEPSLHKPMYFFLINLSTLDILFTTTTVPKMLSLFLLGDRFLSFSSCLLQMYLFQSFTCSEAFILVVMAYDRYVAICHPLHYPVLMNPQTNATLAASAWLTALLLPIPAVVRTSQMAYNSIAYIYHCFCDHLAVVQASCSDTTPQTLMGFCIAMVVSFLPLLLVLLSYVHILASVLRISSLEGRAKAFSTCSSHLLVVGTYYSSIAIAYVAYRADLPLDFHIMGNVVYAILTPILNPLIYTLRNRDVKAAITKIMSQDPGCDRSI
Assay: calcium imaging dose-response in K562 cells (endogenous receptor), blocked by antagonist Phenirat
Type: cell-based

CC1=CCC(CCC(C)C(C)O)C1(C)C (stereo not shown) [Sandalore] gave a pEC50 of 3.58.

From article PMC4979481, “Functional characterization of the ectopically expressed olfactory receptor 2AT4 in human myelogenous leukemia” (Cell Death Discovery, 2016)
